Experimental data reported in ChEMBL document CHEMBL1177812, “Hydroxysafflor Yellow A suppresses thrombin generation and inflammatory responses following focal cerebral ischemia-reperfusion in rats” (2010).
Active and inactive are the calls of the source. The calls are words filed in the database; no cut-off is given here.

Assays:
Rattus norvegicus [1] = assay: Neuroprotective activity against ischemia reperfusion injury in Wistar rat assessed as fibrinogen level at 8 mg/kg, iv by polymerization time method (RVb = 1.45 +/- 0.35 g/L); assay type: functional
Rattus norvegicus [2] = assay: Neuroprotective activity in Wistar rat assessed as ischemia reperfusion injury-induced plasma angiotensin level at 2 to 8 mg/kg, iv by radioimmunoassay; assay type: functional, organism-based
Rattus norvegicus [3] = assay: Antiinflammatory activity in Wistar rat assessed as reduction in ischemia reperfusion injury-induced ICAM1 protein expression at 2 to 8 mg/kg, iv by Western blotting; assay type: functional, organism-based
Rattus norvegicus [4] = assay: Neuroprotective activity against ischemia reperfusion injury in Wistar rat hippocampal formation assessed as reduction in prothrombin mRNA level at 2 to 8 mg/kg, iv; assay type: functional, organism-based; conditions: Hippocampus
Rattus norvegicus [5] = assay: Neuroprotective activity against ischemia reperfusion injury in Wistar rat assessed as fibrinogen level at 4 mg/kg, iv by polymerization time method (RVb = 1.45 +/- 0.35 g/L); assay type: functional
Rattus norvegicus [6] = assay: Neuroprotective activity against ischemia reperfusion injury in Wistar rat assessed as factor 7 level at 4 mg/kg, iv by amidolytic method (RVb = 1.24 +/- 0.34 mg/L); assay type: functional
Rattus norvegicus [7] = assay: Neuroprotective activity against ischemia reperfusion injury in Wistar rat assessed as […] 1+2 at 2 mg/kg, iv by enzyme immunoassay (RVb = 1.97 +/- 0.44 ug/L); assay type: functional
Rattus norvegicus [8] = assay: Neuroprotective activity against ischemia reperfusion injury in Wistar rat assessed as thrombin-antithrombin complex at 8 mg/kg, iv by enzyme immunoassay (RVb = 3.45 +/- 0.57 ug/L); assay type: functional
Rattus norvegicus [9] = assay: Antiinflammatory activity in Wistar rat brain assessed as inhibition of ischemia reperfusion injury-induced NF-kappaB nuclear translocation at 2 to 8 mg/kg, iv; assay type: functional, organism-based
Rattus norvegicus [10] = assay: Neuroprotective activity against ischemia reperfusion injury in Wistar rat assessed as thrombin-antithrombin complex at 4 mg/kg, iv by enzyme immunoassay (RVb = 3.45 +/- 0.57 ug/L); assay type: functional
Rattus norvegicus [11] = assay: Neuroprotective activity against ischemia reperfusion injury in Wistar rat assessed as factor 7 level at 2 mg/kg, iv by amidolytic method (RVb = 1.24 +/- 0.34 mg/L); assay type: functional
Rattus norvegicus [12] = assay: Antiinflammatory activity in Wistar rat brain assessed as reduction in ischemia reperfusion injury-induced MPO activity at 2 to 8 mg/kg, iv; assay type: functional, organism-based
Rattus norvegicus [13] = assay: Neuroprotective activity against ischemia reperfusion injury in Wistar rat assessed as thrombin-antithrombin complex at 2 mg/kg, iv by enzyme immunoassay (RVb = 3.45 +/- 0.57 ug/L); assay type: functional
Rattus norvegicus [14] = assay: Antiinflammatory activity in Wistar rat brain assessed as inhibition of ischemia reperfusion injury-induced p65 subunit binding to DNA at 2 to 8 mg/kg, iv by EMSA; assay type: functional, organism-based
Rattus norvegicus [15] = assay: Neuroprotective activity against ischemia reperfusion injury in Wistar rat assessed as factor 7 level at 8 mg/kg, iv by amidolytic method (RVb = 1.24 +/- 0.34 mg/L); assay type: functional
Rattus norvegicus [16] = assay: Neuroprotective activity against ischemia reperfusion injury in Wistar rat assessed as […] 1+2 at 4 mg/kg, iv by enzyme immunoassay (RVb = 1.97 +/- 0.44 ug/L); assay type: functional
Rattus norvegicus [17] = assay: Neuroprotective activity against ischemia reperfusion injury in Wistar rat assessed as […] 1+2 at 8 mg/kg, iv by enzyme immunoassay (RVb = 1.97 +/- 0.44 ug/L); assay type: functional
Rattus norvegicus [18] = assay: Antiinflammatory activity in Wistar rat hippocampus assessed as reduction in ischemia reperfusion injury-induced IkappaB alpha protein expression at 2 to 8 mg/kg, iv by Western blotting; assay type: functional, organism-based
Rattus norvegicus [19] = assay: Antiinflammatory activity in Wistar rat assessed as reduction in ischemia reperfusion injury-induced ICAM1 mRNA expression at 2 to 8 mg/kg, iv by RT-PCR; assay type: functional, organism-based
Rattus norvegicus [20] = assay: Neuroprotective activity against ischemia reperfusion injury in Wistar rat assessed as fibrinogen level at 2 mg/kg, iv by polymerization time method (RVb = 1.45 +/- 0.35 g/L); assay type: functional

## O=C(/C=C/c1ccc(O)cc1)C1=C(O)C(O)([C@@H]2O[C@H](CO)[C@@H](O)[C@H](O)[C@H]2O)C(O)=C([C@@H]2O[C@H](CO)[C@@H](O)[C@H](O)[C@H]2O)C1=O (stereo not given in full) [HYDROXYSAFFLOR YELLOW A]
Rattus norvegicus [1]
  Activity: 1.55 g/L
Rattus norvegicus [2]
  Activity: Active
Rattus norvegicus [3]
  Activity: Active
Rattus norvegicus [4]
  Activity: Active
Rattus norvegicus [5]
  Activity: 1.9 g/L
Rattus norvegicus [6]
  Activity: 1.19 mg/L
Rattus norvegicus [7]
  Activity: 1.38 µg/L
Rattus norvegicus [8]
  Activity: 1.48 µg/L
Rattus norvegicus [9]
  Activity: Active
Rattus norvegicus [10]
  Activity: 1.89 µg/L
Rattus norvegicus [11]
  Activity: 1.21 mg/L
Rattus norvegicus [12]
  Activity: Active
Rattus norvegicus [13]
  Activity: 2.39 µg/L
Rattus norvegicus [14]
  Activity: Active
Rattus norvegicus [15]
  Activity: 1.01 mg/L
Rattus norvegicus [16]
  Activity: 0.8 µg/L
Rattus norvegicus [17]
  Activity: 0.54 µg/L
Rattus norvegicus [18]
  Activity: Active
Rattus norvegicus [19]
  Activity: Active
Rattus norvegicus [20]
  Activity: 2.06 g/L
